Source: patent publication US20220064696A1, “TARGET ENGAGEMENT ASSAY FOR RAS PROTEINS” (Promega Corporation, priority 2020, published 2022)

Key:
Format in all cases: binding
KRAS [1] = molecular target: T1, KRAS (Homo sapiens, UniProt P01116); test: NanoLuc fusion BRET target engagement assay in cells, tracer JRW-2025; settings: HEK293 cells, wild-type KRAS-NanoLuc fusion, tracer JRW-2025, FIG. 4
T1 construct: expressed in transfected cells; host or cells: HEK293
Description: (§1) Luminescence was produced from either NanoLuc (Nluc) tagging of KRAS as the BRET donor, or by NanoBiT tagging of KRAS, wherein BRET donor signal originates from KRAS multimeric species in cells. In 96-well plates, 20,000 HEK293 cells per well were transfected with KRAS-Nluc fusions or KRAS-NanoBiT fusions expressed from pFN31K and pFN32K plasmids. Transfections were performed using 3:1 FuGENE HD:plasmid ratios. […] After incubation, NanoBRET-TE substrate solution was added to a final concentration of 1×, and BRET was measured on a Glomax Discover plate reader.

KRAS^G12C [2] = molecular target: T2, KRAS^G12C (Homo sapiens, UniProt P01116, G12C); test: as above; settings: HEK293 cells, tracer JRW-2025, FIG. 4
T2 construct: expressed in transfected cells; host or cells: HEK293
Description: as §1

KRAS^G12D [3] = molecular target: T3, KRAS^G12D (Homo sapiens, UniProt P01116, G12D); test: as above; settings: HEK293 cells, tracer JRW-2025, FIG. 4
T3 construct: expressed in transfected cells; host or cells: HEK293
Description: as §1

KRAS^G12V [4] = molecular target: T4, KRAS^G12V (Homo sapiens, UniProt P01116, G12V); test: as above; settings: HEK293 cells, tracer JRW-2025, FIG. 4
T4 construct: expressed in transfected cells; host or cells: HEK293
Description: as §1

KRAS [5] = molecular target: T1, KRAS; test: NanoBiT BRET target engagement assay in cells, LgBiT and SmBiT fusions, tracer JRW-2111; settings: HEK293 cells, wild-type KRAS LgBiT/SmBiT fusions, tracer JRW-2111, FIGS. 2-3
Description: as §1

KRAS^G12C [6] = molecular target: T2, KRAS^G12C; test: as above; settings: HEK293 cells, tracer JRW-2111, FIGS. 2-3
Description: as §1

KRAS^G12D [7] = molecular target: T3, KRAS^G12D; test: as above; settings: HEK293 cells, tracer JRW-2111, FIGS. 2-3
Description: as §1

KRAS^G12V [8] = molecular target: T4, KRAS^G12V; test: as above; settings: HEK293 cells, tracer JRW-2111, FIGS. 2-3
Description: as §1

KRAS2B(G12V) [9] = molecular target: T5, KRAS2B(G12V) (Homo sapiens, UniProt P01116, G12V); test: Target engagement at KRAS(G12V) homomultimeric complexes, NanoBiT oligomer configuration with SmBiT tag; settings: live HEK293 cells, LgBiT-KRAS2B(G12V) and SmBiT-KRAS2B(G12V)
T5 construct: expressed in transfected cells; host or cells: HEK293
Description: (§2) To explore this concept, the NanoBiT™ Technology was used to observe KRAS multimeric (e.g., dimer) complexes by NanoBiT tagging of KRAS, wherein BRET donor signal originates from an oligomeric KRAS. In a tissue culture flask, HEK293 cells per well were transfected with KRAS-NanoBiT fusions, LgBiT-KRAS2B(G12V) and SmBiT-KRAS2B(G12V) expressed from pNB3K or pNB4K plasmids along with pGEM-3Z carrier DNA (1:1:8 ratio by mass). Transfections were performed using 3:1 FuGENE HD:plasmid ratios. 24 hours post transfection, cells were treated with compound JRW-2192 and BI-2852.
(§3) After incubation in live cells, NanoBRET-TE substrate solution was added to a final concentration of 1×, and BRET was measured on a Glomax Discover plate reader.

KRAS2B(G12C) [10] = molecular target: T6, KRAS2B(G12C) (Homo sapiens, UniProt P01116, G12C); test: Target engagement at KRAS(G12C) homomultimeric complexes, NanoBiT oligomer configuration with SmBiT tag; settings: LgBiT-KRAS2B(G12C) and SmBiT-KRAS2B(G12C)
T6 construct: expressed in transfected cells; host or cells: HEK293
Description: as §2, with “LgBiT-KRAS2B(G12C)” for “LgBiT-KRAS2B(G12V)”, “SmBiT-KRAS2B(G12C)” for “SmBiT-KRAS2B(G12V)”, “JRW-2220” for “JRW-2192”
as §3
The assay was also performed in digitonin permeabilized cells.

KRAS2B(G12C) [11] = molecular target: T6, KRAS2B(G12C); test: KRAS(G12C) homomultimeric complexes, NanoBiT oligomer configuration with HiBiT tag; settings: LgBiT-KRAS2B(G12C) and HiBiT-KRAS2B(G12C)
Description: as §2, with “form” for “observe”, “LgBiT-KRAS2B(G12C)” for “LgBiT-KRAS2B(G12V)”, “HiBiT-KRAS2B(G12C)” for “SmBiT-KRAS2B(G12V)”, “pFN38A” for “pNB4K”, “JRW-2220” for “JRW-2192”
as §3
The assay was also performed in digitonin permeabilized cells. Even after permeabilization, donor signal levels remained significant due to the use of the HiBiT tag, facilitating measurement of target engagement.

HRAS1 = molecular target: T7, HRAS1 (Homo sapiens, UniProt P01112); test: RAS NanoBiT target engagement assay in cells (LgBiT-RAS and SmBiT-RAS); settings: HEK293 cells, LgBiT-HRAS1 and SmBiT-HRAS1, tracer JRW-2219 or JRW-2220, FIGS. 18-19
T7 construct: expressed in transfected cells; host or cells: HEK293
Description: (§4) To explore this concept, the NanoBiT™ Technology was used to form RAS multimeric (e.g., dimer) complexes by NanoBiT tagging of RAS, wherein BRET donor signal originates from an oligomeric RAS. In a tissue culture flask, HEK293 cells per well were transfected with RAS-NanoBiT fusions, LgBiT-RAS and SmBiT-RAS expressed from pNB3K or pNB4K plasmids along with pGEM-3Z carrier DNA (1:1:8 ratio by mass). Transfections were performed using 3:1 FuGENE HD:plasmid ratios. 24 hours post transfection, cells were treated with compound JRW-2219, JRW-2220, or JRW-2310, and BI-2852.

KRAS2B = molecular target: T8, KRAS2B (Homo sapiens, UniProt P01116); test: as above; settings: HEK293 cells, tracer JRW-2219, FIGS. 10-11
T8 construct: expressed in transfected cells; host or cells: HEK293
Description: as §4

KRAS2B(G12C) [12] = molecular target: T6, KRAS2B(G12C); test: as above; settings: HEK293 cells, tracer JRW-2219 or JRW-2220, FIGS. 12-13
Description: as §4

KRAS2B(G12D) = molecular target: T9, KRAS2B(G12D) (Homo sapiens, UniProt P01116, G12D); test: as above; settings: HEK293 cells, tracer JRW-2219 or JRW-2220, FIGS. 14-15
T9 construct: expressed in transfected cells; host or cells: HEK293
Description: as §4

KRAS2B(G12V) [13] = molecular target: T5, KRAS2B(G12V); test: as above; settings: HEK293 cells, tracer JRW-2219 or JRW-2220, FIGS. 16-17
Description: as §4

KRAS2B(G13D) = molecular target: T10, KRAS2B(G13D) (Homo sapiens, UniProt P01116, G13D); test: as above; settings: HEK293 cells, tracer JRW-2310, FIG. 24
T10 construct: expressed in transfected cells; host or cells: HEK293
Description: as §4

KRAS2B(Q61H) = molecular target: T11, KRAS2B(Q61H) (Homo sapiens, UniProt P01116, Q61H); test: as above; settings: HEK293 cells, tracer JRW-2310, FIG. 22
T11 construct: expressed in transfected cells; host or cells: HEK293
Description: as §4

KRAS2B(Q61L) = molecular target: T12, KRAS2B(Q61L) (Homo sapiens, UniProt P01116, Q61L); test: as above; settings: HEK293 cells, tracer JRW-2310, FIG. 23
T12 construct: expressed in transfected cells; host or cells: HEK293
Description: as §4

KRAS2B(Q61R) = molecular target: T13, KRAS2B(Q61R) (Homo sapiens, UniProt P01116, Q61R); test: as above; settings: HEK293 cells, tracer JRW-2310, FIG. 21
T13 construct: expressed in transfected cells; host or cells: HEK293
Description: as §4

## C=CC(=O)N1CCN(c2ncnc3c(F)c(-c4c(O)cccc4F)c(Cl)cc23)CC1 [ARS-1620]
KRAS [1]
  competition with the KRAS binding agent (BRET): only observed for the KRAS^G12C mutant
KRAS^G12C [2]
  competition with the KRAS binding agent (BRET): competition was only observed for the KRAS^G12C mutant
KRAS^G12D [3]
  competition with the KRAS binding agent (BRET): only observed for the KRAS^G12C mutant
KRAS^G12V [4]
  competition with the KRAS binding agent (BRET): only observed for the KRAS^G12C mutant

## Cn1cnc(Cn2ccc3ccc(CNCc4[nH]c5ccccc5c4[C@H]4NC(=O)c5ccc(O)cc54)cc32)c1 [BI-2852]
KRAS [5]
  target engagement (competition with the KRAS binding agent, BRET): target engagement was observed
KRAS^G12C [6]
  target engagement (competition with the KRAS binding agent, BRET): target engagement was observed
KRAS^G12D [7]
  target engagement (competition with the KRAS binding agent, BRET): target engagement was observed
KRAS^G12V [8]
  target engagement (competition with the KRAS binding agent, BRET): target engagement was observed
KRAS [1]
  competition with the KRAS binding agent (BRET): competition was observed
KRAS^G12C [2]
  competition with the KRAS binding agent (BRET): competition was observed
KRAS^G12D [3]
  competition with the KRAS binding agent (BRET): competition was observed
KRAS^G12V [4]
  competition with the KRAS binding agent (BRET): competition was observed
KRAS2B(G12V) [9]; tracer JRW-2192, FIG. 5
  inhibition of the BRET signal induced by the tracer (functional competition): dose-dependent inhibition of the BRET signal
KRAS2B(G12C) [10]; digitonin permeabilized HEK293 cells, tracer JRW-2220, FIG. 7
  inhibition of the BRET signal induced by the tracer (functional competition): dose-dependent inhibition of the BRET signal
KRAS2B(G12C) [10]; live HEK293 cells, tracer JRW-2220, FIG. 6
  inhibition of the BRET signal induced by the tracer (functional competition): dose-dependent inhibition of the BRET signal
KRAS2B(G12C) [11]; digitonin permeabilized HEK293 cells, tracer JRW-2220, FIG. 9
  inhibition of the BRET signal induced by the tracer (functional competition): dose-dependent inhibition of the BRET signal
KRAS2B(G12C) [11]; live HEK293 cells, tracer JRW-2220, FIG. 8
  inhibition of the BRET signal induced by the tracer (functional competition): dose-dependent inhibition of the BRET signal
HRAS1
  target engagement (BRET, competition with the RAS binding agent): target engagement was observed
KRAS2B
  target engagement (BRET, competition with the RAS binding agent): target engagement was observed
KRAS2B(G12C) [12]
  target engagement (BRET, competition with the RAS binding agent): target engagement was observed
KRAS2B(G12D)
  target engagement (BRET, competition with the RAS binding agent): target engagement was observed
KRAS2B(G12V) [13]
  target engagement (BRET, competition with the RAS binding agent): target engagement was observed
KRAS2B(G13D)
  target engagement (BRET, competition with the RAS binding agent): target engagement was observed
KRAS2B(Q61H)
  target engagement (BRET, competition with the RAS binding agent): target engagement was observed
KRAS2B(Q61L)
  target engagement (BRET, competition with the RAS binding agent): target engagement was observed
KRAS2B(Q61R)
  target engagement (BRET, competition with the RAS binding agent): target engagement was observed

## O=C(CCc1ccc2n1[B-](F)(F)[N+]1=C(c3ccc[nH]3)C=CC1=C2)NCCOCCOCCOCCOCCC(=O)NCc1cccc(Cn2ccc3ccc(CNCc4[nH]c5ccccc5c4C4NC(=O)c5ccc(O)cc54)cc32)c1 (stereo not shown) [JRW-2192, 1-(3-(5,5-difluoro-7-(1H-pyrrol-2-yl)-5H-5λ^4,6λ^4-dipyrrolo[1,2-c:2′,1′-f][1,3,2]diazaborinin-3-yl)propanamido)-N-(3-((6-((((3-(6-hydroxy-3-oxoisoindolin-1-yl)-1H-indol-2-yl)methyl)amino)methyl)-1H-indol-1-yl)methyl)benzyl)-3,6,9,12-tetraoxapentadecan-15-amide]
KRAS2B(G12V) [9]; FIG. 5
  BRET signal with increasing concentrations of the tracer: dose-dependent increase in the BRET signal

## O=C(CCOCCOCCOCCOCCNC(=O)CCc1ccc2n1[B-](F)(F)[N+]1=C(c3ccc[nH]3)C=CC1=C2)NCCCn1cnc(Cn2ccc3ccc(CNCc4[nH]c5ccccc5c4C4NC(=O)c5ccc(O)cc54)cc32)c1 (stereo not shown) [JRW-2220, 1-(3-(5,5-difluoro-7-(1H-pyrrol-2-yl)-5H-5λ^4,6λ^4-dipyrrolo[1,2-c:2′,1′-f][1,3,2]diazaborinin-3-yl)propanamido)-N-(3-(4-((6-((((3-(6-hydroxy-3-oxoisoindolin-1-yl)-1H-indol-2-yl)methyl)amino)methyl)-1H-indol-1-yl)methyl)-1H-imidazol-1-yl)propyl)-3,6,9,12-tetraoxapentadecan-15-amide]
KRAS2B(G12C) [10]; digitonin permeabilized HEK293 cells, FIG. 7
  BRET signal with increasing concentrations of the tracer: dose-dependent increase in the BRET signal
KRAS2B(G12C) [10]; live HEK293 cells, FIG. 6
  BRET signal with increasing concentrations of the tracer: dose-dependent increase in the BRET signal
KRAS2B(G12C) [11]; digitonin permeabilized HEK293 cells, FIG. 9
  BRET signal with increasing concentrations of the tracer: dose-dependent increase in the BRET signal
KRAS2B(G12C) [11]; live HEK293 cells, FIG. 8
  BRET signal with increasing concentrations of the tracer: dose-dependent increase in the BRET signal
